Laboratory results: US20070135383A1, “Phospholipase inhibitors, including multi-valent phospholipase inhibitors, and use thereof, including as lumen-localized phospholipase inhibitors” (priority 2005, published 2007)

Legend:
[1] = target: T1, porcine group 1B PLA2 (pps PLA2) (Sus scrofa, UniProt P00592); assay: Fluorimetric PPyrPM assay for group 1B PLA2 inhibition (Example 12); assay type: biochemical; details: porcine pancreas secreted PLA2; read-out: ILYPSA IC50 pps PLA2
T1 construct: purchased
How it was run: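 Porcine group 1B PLA2 hydrolysis of 4.2 uM PPyrPM vesicle solution (pre-mixing concentration) in 50 mM Tris-HCl pH 8.0, 50 mM KCl, 1 mM CaCl2 with BSA; inhibitors in 8-point threefold series from 15 uM. After 3 min at 37 °C, fluorescence read at ex 342/em 395 nm; duplicate IC50 by four-parameter fit.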

human PLA2 IB enzyme = human PLA2 IB enzyme (Homo sapiens, UniProt P04054); details: versus the human PLA2 IB enzyme; cited from earlier work
Stability at low pH = assay type: physicochemical

T1 sequence (P00592 23-146): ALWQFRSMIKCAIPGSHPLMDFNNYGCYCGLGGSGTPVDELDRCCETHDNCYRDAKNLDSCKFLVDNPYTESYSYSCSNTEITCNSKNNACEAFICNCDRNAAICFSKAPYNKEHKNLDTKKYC
human PLA2 IB enzyme, sequence (P04054 23-148): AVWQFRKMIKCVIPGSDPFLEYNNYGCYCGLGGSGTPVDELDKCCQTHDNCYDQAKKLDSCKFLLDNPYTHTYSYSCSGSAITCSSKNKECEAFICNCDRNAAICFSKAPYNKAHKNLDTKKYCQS

Row | SMILES | IC50 [1] [nM] | IC50 (human PLA2 IB enzyme) [nM] | stability at low pH (Stability at low pH)
1 | Cc1c(C(=O)C(N)=O)c2c(OCC(=O)O)cccc2n1CCCCCCCCSCCCCCCCCSCCCCCCCCn1c(C)c(C(=O)C(N)=O)c2c(OCC(=O)O)cccc21 [ILY-V-24, 2,2′-(1,1′-(8,8′-(Octane-1,8-diylbis(sulfanediyl))bis(octane-8,1-diyl))bis(3-(2-amino-2-oxoacetyl)-2-methyl-1H-indole-4,1-diyl))bis(oxy)diacetic acid] | 800 |  | 
2 | Cc1c(C(=O)C(N)=O)c2c(OCC(=O)O)cccc2n1Cc1ccccc1-c1ccccc1 [ILY-4001, 2-(3-(2-amino-2-oxoacetyl)-1-(biphenyl-2-ylmethyl)-2-methyl-1H-indol-4-yloxy)acetic acid] |  | ~200 | stable
